What was measured:
Format in all cases: functional
[1] = Cytotoxicity against human Hs 578T cells assessed as cell growth at 10 uM after 24 hrs by SRB assay; details: read-out: Activity
[2] = Cytotoxicity against human Caki1 cells assessed as cell growth at 10 uM after 24 hrs by SRB assay; details: CAKI-1, 24 h, read-out: Activity
[3] = Cytotoxicity against human SF539 cells assessed as cell growth at 10 uM after 24 hrs by SRB assay; details: SF-539, 24 h, read-out: Activity
[4] = Cytotoxicity against human SNB75 cells assessed as cell growth at 10 uM after 24 hrs by SRB assay; details: SNB-75, 24 h, read-out: Activity
NCI-H23 = assay: Cytotoxicity against human NCI-H23 cells assessed as cell growth at 10 uM after 24 hrs by SRB assay; details: NCI-H23, 24 h, read-out: Activity
[5] = Cytotoxicity against human UACC62 cells assessed as cell growth at 10 uM after 24 hrs by SRB assay; details: UACC-62, 24 h, read-out: Activity
[6] = Cytotoxicity against human IGROV1 cells assessed as cell growth at 10 uM after 24 hrs by SRB assay; details: IGROV-1, 24 h, read-out: Activity
[7] = Cytotoxicity against human PC3 cells assessed as cell growth at 10 uM after 24 hrs by SRB assay; details: PC-3, 24 h, read-out: Activity
786-0 = assay: Cytotoxicity against human 786-0 cells assessed as cell growth at 10 uM after 24 hrs by SRB assay; details: 786-0, 24 h, read-out: Activity
HT-29 = assay: Cytotoxicity against human HT-29 cells assessed as cell growth at 10 uM after 24 hrs by SRB assay; details: HT-29, 24 h, read-out: Activity
[8] = Cytotoxicity against human HCT116 cells assessed as cell growth at 10 uM after 24 hrs by SRB assay; details: HCT-116, 24 h, read-out: Activity
[9] = Cytotoxicity against human SF295 cells assessed as cell growth at 10 uM after 24 hrs by SRB assay; details: SF-295, 24 h, read-out: Activity
SK-MEL-5 = assay: Cytotoxicity against human SK-MEL-5 cells assessed as cell growth at 10 uM after 24 hrs by SRB assay; details: SK-MEL-5, 24 h, read-out: Activity
U-251 = assay: Cytotoxicity against human U251 cells assessed as cell growth at 10 uM after 24 hrs by SRB assay; details: U-251, 24 h, read-out: Activity
Malme-3M = assay: Cytotoxicity against human MALME-3M cells assessed as cell growth at 10 uM after 24 hrs by SRB assay; details: read-out: Activity
SR = assay: Cytotoxicity against human SR cells assessed as cell growth at 10 uM after 24 hrs by SRB assay; details: read-out: Activity
[10] = Cytotoxicity against human SW620 cells assessed as cell growth at 10 uM after 24 hrs by SRB assay; details: SW-620, 24 h, read-out: Activity
[11] = Cytotoxicity against human HOP92 cells assessed as cell growth at 10 uM after 24 hrs by SRB assay; details: HOP-92, 24 h, read-out: Activity
MDA-MB-435 = assay: Cytotoxicity against human MDA-MB-435 cells assessed as cell growth at 10 uM after 24 hrs by SRB assay; details: MDA-MB-435, 24 h, read-out: Activity
[12] = Cytotoxicity against human HOP62 cells assessed as cell growth at 10 uM after 24 hrs by SRB assay; details: HOP-62, 24 h, read-out: Activity
KM12 = assay: Cytotoxicity against human KM12 cells assessed as cell growth at 10 uM after 24 hrs by SRB assay; details: KM12, 24 h, read-out: Activity
[13] = Cytotoxicity against human LOXIMVI cells assessed as cell growth at 10 uM after 24 hrs by SRB assay; details: LOX IMVI, read-out: Activity
[14] = Cytotoxicity against human HCT15 cells assessed as cell growth at 10 uM after 24 hrs by SRB assay; details: HCT-15, 24 h, read-out: Activity
T47D = assay: Cytotoxicity against human T47D cells assessed as cell growth at 10 uM after 24 hrs by SRB assay; details: read-out: Activity
[15] = Cytotoxicity against human HCC2998 cells assessed as cell growth at 10 uM after 24 hrs by SRB assay; details: HCC 2998, 24 h, read-out: Activity
NCI-H460 = assay: Cytotoxicity against human NCI-H460 cells assessed as cell growth at 10 uM after 24 hrs by SRB assay; details: NCI-H460, 24 h, read-out: Activity
[16] = Cytotoxicity against human HL-60(TB) cells assessed as cell growth at 10 uM after 24 hrs by SRB assay; details: HL-60, 24 h, read-out: Activity
ACHN = assay: Cytotoxicity against human ACHN cells assessed as cell growth at 10 uM after 24 hrs by SRB assay; details: read-out: Activity
NCI-H522 = assay: Cytotoxicity against human NCI-H522 cells assessed as cell growth at 10 uM after 24 hrs by SRB assay; details: NCI-H522, 24 h, read-out: Activity
[17] = Cytotoxicity against human SNB19 cells assessed as cell growth at 10 uM after 24 hrs by SRB assay; details: SNB-19, 24 h, read-out: Activity
A498 = assay: Cytotoxicity against human A498 cells assessed as cell growth at 10 uM after 24 hrs by SRB assay; details: A498, 24 h, read-out: Activity
[18] = Cytotoxicity against human SF268 cells assessed as cell growth at 10 uM after 24 hrs by SRB assay; details: SF-268, 24 h, read-out: Activity
[19] = Cytotoxicity against human OVCAR8 cells assessed as cell growth at 10 uM after 24 hrs by SRB assay; details: OVCAR-8, 24 h, read-out: Activity
K562 = assay: Cytotoxicity against human K562 cells assessed as cell growth at 10 uM after 24 hrs by SRB assay; details: K562, 24 h, read-out: Activity
[20] = Cytotoxicity against human OVCAR5 cells assessed as cell growth at 10 uM after 24 hrs by SRB assay; details: OVCAR-5, 24 h, read-out: Activity
[21] = Cytotoxicity against human RPMI8226 cells assessed as cell growth at 10 uM after 24 hrs by SRB assay; details: RPMI-8226, 24 h, read-out: Activity
[22] = Cytotoxicity against human OVCAR4 cells assessed as cell growth at 10 uM after 24 hrs by SRB assay; details: OVCAR-4, 24 h, read-out: Activity
NCI-H226 = assay: Cytotoxicity against human NCI-H226 cells assessed as cell growth at 10 uM after 24 hrs by SRB assay; details: NCI-H226, 24 h, read-out: Activity
[23] = Cytotoxicity against human SKOV3 cells assessed as cell growth at 10 uM after 24 hrs by SRB assay; details: SK-OV-3, 24 h, read-out: Activity

SMILES | growth at 10 µM [1] [%] | growth at 10 µM [2] [%] | growth at 10 µM [3] [%] | growth at 10 µM [4] [%] | growth at 10 µM (NCI-H23) [%] | growth at 10 µM [5] [%] | growth at 10 µM [6] [%] | growth at 10 µM [7] [%] | growth at 10 µM (786-0) [%] | growth at 10 µM (HT-29) [%] | growth at 10 µM [8] [%] | growth at 10 µM [9] [%] | growth at 10 µM (SK-MEL-5) [%] | growth at 10 µM (U-251) [%] | growth at 10 µM (Malme-3M) [%] | growth at 10 µM (SR) [%] | growth at 10 µM [10] [%] | growth at 10 µM [11] [%] | growth at 10 µM (MDA-MB-435) [%] | growth at 10 µM [12] [%] | also measured
COc1cc(OC)cc(C(=O)Nc2cc(-c3cccnc3)nc(NCCCN3CCOCC3)n2)c1 | 69 | 101 | 91.1 | 109 | 91.7 | 97.6 | 97.4 | 85.4 | 84 | 85.2 | 89.2 | 101 | 68.3 | 90.5 | 110 | 57.9 | 99.9 | 67.7 | 102 | 87.8 | growth at 10 µM (KM12): 104%; growth at 10 µM [13]: 88.1%; growth at 10 µM [14]: 90.6%; growth at 10 µM (T47D): 72.8%; growth at 10 µM [15]: 123%; growth at 10 µM (NCI-H460): 95.3%; growth at 10 µM [16]: 86.5%; growth at 10 µM (ACHN): 103%; growth at 10 µM (NCI-H522): 92%; growth at 10 µM [17]: 98.7%; growth at 10 µM (A498): 83.3%; growth at 10 µM [18]: 94.1%; growth at 10 µM [19]: 91.8%; growth at 10 µM (K562): 74.1%; growth at 10 µM [20]: 100%; growth at 10 µM [21]: 79.1%; growth at 10 µM [22]: 117%; growth at 10 µM (NCI-H226): 85.7%; growth at 10 µM [23]: 93.9%
Cc1cc(Cl)ccc1C(=O)Nc1cc(-c2cccnc2)nc(NCCCN2CCOCC2)n1 | 96.9 | 101 | 91.4 | 91.3 | 96.7 | 102 | 109 | 107 | 77.2 | 95.7 | 99.8 | 97.9 | 92.7 | 96.2 | 104 | 98.7 | 99 | 95.9 | 101 | 91.5 | growth at 10 µM (KM12): 101%; growth at 10 µM [13]: 109%; growth at 10 µM [14]: 104%; growth at 10 µM (T47D): 96.4%; growth at 10 µM [15]: 100%; growth at 10 µM (NCI-H460): 110%; growth at 10 µM (ACHN): 100%; growth at 10 µM (NCI-H522): 82.8%; growth at 10 µM [17]: 89.8%; growth at 10 µM (A498): 95.2%; growth at 10 µM [18]: 101%; growth at 10 µM [19]: 96.9%; growth at 10 µM (K562): 113%; growth at 10 µM [20]: 94.1%; growth at 10 µM [21]: 104%; growth at 10 µM [22]: 97.7%; growth at 10 µM (NCI-H226): 77.6%; growth at 10 µM [23]: 93.7%
COCCCNc1nc(NC(=O)c2cc(OC)cc(OC)c2)cc(-c2cccnc2)n1 | 95.3 | 99.4 | 88.9 | 73.1 | 98.6 | 111 | 102 | 87.3 | 83.3 | 95.5 | 90.3 | 100 | 72.4 | 96.8 | 112 | 80.6 | 101 | 52.6 | 100 | 91.3 | growth at 10 µM (KM12): 103%; growth at 10 µM [13]: 94.5%; growth at 10 µM [14]: 90.3%; growth at 10 µM (T47D): 63.8%; growth at 10 µM [15]: 110%; growth at 10 µM (NCI-H460): 95.2%; growth at 10 µM [16]: 90.2%; growth at 10 µM (ACHN): 98.2%; growth at 10 µM (NCI-H522): 76.5%; growth at 10 µM [17]: 98.3%; growth at 10 µM (A498): 67.7%; growth at 10 µM [18]: 100%; growth at 10 µM [19]: 79.3%; growth at 10 µM (K562): 86.1%; growth at 10 µM [20]: 95.7%; growth at 10 µM [21]: 69.3%; growth at 10 µM [22]: 108%; growth at 10 µM (NCI-H226): 96.5%; growth at 10 µM [23]: 105%
COCCCNc1nc(NC(=O)c2cc(Br)cc(C(F)(F)F)c2)cc(-c2cccnc2)n1 | 83 | 81.4 | 94 | 115 | 103 | 90.5 | 91.3 | 70.6 | 85.8 | 83.7 | 85.6 | 89.2 | 70.6 | 85.9 | 99.7 | 83.4 | 86.9 | 57.9 | 88.4 | 91.8 | growth at 10 µM (KM12): 105%; growth at 10 µM [13]: 104%; growth at 10 µM [14]: 85.9%; growth at 10 µM (T47D): 65%; growth at 10 µM [15]: 114%; growth at 10 µM (NCI-H460): 85.7%; growth at 10 µM [16]: 94.6%; growth at 10 µM (ACHN): 87.3%; growth at 10 µM (NCI-H522): 83.5%; growth at 10 µM [17]: 95.9%; growth at 10 µM (A498): 76.2%; growth at 10 µM [18]: 90.5%; growth at 10 µM [19]: 87.5%; growth at 10 µM (K562): 73.3%; growth at 10 µM [20]: 100%; growth at 10 µM [21]: 65.6%; growth at 10 µM [22]: 92.3%; growth at 10 µM (NCI-H226): 91.8%; growth at 10 µM [23]: 92.2%
COCCCNc1nc(NC(=O)c2ccc(Cl)cc2C)cc(-c2cccnc2)n1 | 103 | 99.5 | 89.9 | 87.6 | 107 | 109 | 106 | 110 | 85.4 | 105 | 101 | 104 | 84.1 | 112 | 103 | 110 | 109 | 67 | 95.6 | 99.3 | growth at 10 µM (KM12): 104%; growth at 10 µM [13]: 107%; growth at 10 µM [14]: 109%; growth at 10 µM (T47D): 89.4%; growth at 10 µM [15]: 103%; growth at 10 µM (NCI-H460): 102%; growth at 10 µM [16]: 106%; growth at 10 µM (ACHN): 99.1%; growth at 10 µM (NCI-H522): 78.6%; growth at 10 µM [17]: 91.7%; growth at 10 µM (A498): 109%; growth at 10 µM [18]: 104%; growth at 10 µM [19]: 94.2%; growth at 10 µM (K562): 104%; growth at 10 µM [20]: 91.6%; growth at 10 µM [21]: 90.2%; growth at 10 µM [22]: 106%; growth at 10 µM (NCI-H226): 89.1%; growth at 10 µM [23]: 98.4%
